Data on one compound can be found in patent US20240277695A1, “FOXO INHIBITORS FOR USE IN THE TREATMENT OF DISEASES CAUSED BY ABNORMAL PROCESSING OF TDP-43 AND/OR FUS PROTEINS” (Administración General de la Comunidad Autónoma de Euskadi, priority 2020, published 2024).

This test relates to Drosophila flies with muscle-conditioned silencing of Caz or Tbph. In words: Climbing (locomotor activity) test in flies with muscle-conditioned silencing of Caz or Tbph. Type of test: in vivo, Drosophila melanogaster. Particulars: 30 μM; Caz- and Tbph-silenced flies; more pronounced in Tbph lines. An excerpt: FIG. 7. Foxo inhibition improves muscle function and lifespan in Drosophila flies with muscle-conditioned deficiency of TDP-43 or FUS. […] F, Caz or Tbph-silenced flies have reduced survival times, as indicated by Kaplan-Meier curves (left panel) and median lifespan (right panel) (n=100 flies per group). […] This effect was particularly noticeable in iCaz and iTbph^attp40) fly lines (n=100 flies per group). *p<0.05: **p<0.01, ***p<0.001.
After knowing that FoxO inhibition provides benefits to muscle cells in vitro, we wanted to further test the effects of targeting FoxO factors on muscle function under the context of TDP-43 or FUS loss-of-function in vivo. To that purpose, we generated various Drosophilamodels with muscle-conditioned silencing of either Cabeza (Caz) or Tbph genes, which are orthologs of human FUS or TARDBP, respectively. […] Drosophila has only one ortholog for mammalian FoxO factors, which is called foxo. Although the affinity of AS1842856 for Drosophila foxo has never been tested, the fact that FoxO DNA-binding sites, with which the inhibitor interacts, are well conserved among species, including Drosophila melanogaster (FIG. 7B) provides enough rationale to test its efficacy in Drosophila models.

In the case of `CCn1cc(C(=O)O)c(=O)c2c(N)c(F)c(NC3CCCCC3)cc21` [AS1842856], the “muscle function (climbing activity)” value was “strong benefits on muscle function”.
